Measurements taken from US20090214454A1, “METHOD FOR SKIN WHITENING USING (2Z, 8Z) - MATRICARIA ACID METHYL ESTER” (INHA-INDUSTRY PARTNERSHIP INSTITUTE, priority 2008, published 2009).

What was measured:
melan-A cells [1] = assay: Melanin generation inhibition by measuring OD405 in melan-A melanocytes; type: cell-based; details: for Melanin generation rate (%): culture for three days, vs non-treated group = 100
Description: Melan-A melanocytes were provided by AmorePacific Co., Korea. Melan-A is the cell line producing melanin, which has been usually used for the examination of a whitening agent. For cell culture, RPMI1640 medium supplemented with 10% FBS, 1% penicillin/streptomycin, and 200 nM TPA was prepared and sterilized. The cells were cultured in a 37° C., 10% CO2 incubator. When the melan-A cells were grown to fill 90% of 100 mm Petri-dish, the cells were sub-cultured.
The cells were recovered by using trypsine-EDTA. 1N NaOH containing 10% DMSO (dimethylsulfoxide) was added to the recovered cells, followed by reaction at 80° C. for 1 hour to let melanin dissolved fully. Then, OD405 was measured using ELISA reader (VERSAmax, Molecular device, USA). Melanin generation was quantified by the following mathematical formula 1 (Table 1, FIGS. 4 and 5).
Melanin generation rate (%)=OD of treated group/OD of non-treated group×100 [Mathematical Formula 1]

melan-A cells [2] = assay: Cytotoxicity test (MTT, OD540) in Melan-A cells; type: cell-based; details: for Cell survival rate (%): Melan-A cells, MTT, three days, vs non-treated group = 100
Description: Upon completion of the culture, the medium was eliminated and 100 μl of MTT (3-(4,5-dimethythiazol-2-yl)-2,5-diphenyltetrazoliu,bromide) solution was added to each well of the plate, followed by reaction at 37° C. for 4 hours. Upon completion of the reaction, the solution was eliminated and 100 μl of DMSO was added to each well of the plate to lyse the stained cells. Then, OD540 was measured using ELISA reader. Cell survival rate was calculated by the following mathematical formula 2 (Table 2, FIGS. 4 and 5).
Cell survival rate (%)=(OD of treated group/OD of non-treated group)×100 [Mathematical Formula 2]

NC(=S)Nc1ccccc1 [Phenylthiourea, phenylthiourea, reference compound]
Melanin generation rate (%) (melan-A cells [1]; 50 uM): 36.19% | Cell survival rate (%) (melan-A cells [2]; 50 uM): 100.19%

C/C=C\C#CC#C/C=C\C(=O)OC [(2Z,8Z)-matricaria acid methyl ester]
Melanin generation rate (%) (melan-A cells [1]; 4.5 uM): 36.37% | Melanin generation rate (%) (melan-A cells [1]; 9 uM): 26.92% | Melanin generation (result in words) (melan-A cells [1]; compared with non-treated negative control (and positive control PTU for the compound)): inhibited melanin generation at a lower concentration | Cell survival rate (%) (melan-A cells [2]; 4.5 uM): 106.66% | Cell survival rate (%) (melan-A cells [2]; 9 uM): 99.44% | Cytotoxicity (result in words) (melan-A cells [2]; at a low concentration): no cytotoxicity was observed
